Holding throughout (type): protein-complex assay
In test [1] the target is Glutamate NMDA receptor. The test can be described thus: Displacement of [3H]CPP or [3H]-CGS- 19755 from rat N-methyl-D-aspartate glutamate receptor.
Test [2] addresses Glutamate NMDA receptor. The test can be described thus: (§1) Compound was evaluated for its ability to displace [3H]CPP or [3H]-CGS- 19755 ligand from N-methyl-D-aspartate (NMDA) receptor.
Test [3] deals with Glutamate NMDA receptor. The test can be described thus: Compound was evaluated for its ability to displace [3H]-CPP ligand from N-methyl-D-aspartate (NMDA) receptor.
Test [4] deals with Glutamate NMDA receptor. The test can be described thus: Compound was evaluated for its ability to displace [3H]CPP or [3H]-CGS- 19755 ligand from N-methyl-D-aspartate glutamate receptor.
The target in test [5] is Glutamate NMDA receptor. The test can be described thus: Compound was evaluated for its ability to displace [3H]CPP ligand from N-methyl-D-aspartate (NMDA) receptor.
For test [6], the target named is Glutamate NMDA receptor. The test can be described thus: Compound was evaluated for its ability to displace [3H]-CGS- 19755 ligand from N-methyl-D-aspartate glutamate receptor.
The target of test [7] is Glutamate NMDA receptor. As to the kind of experiment: Compound was evaluated for its ability to displace [3H]CPP ligand from N-methyl-D-aspartate glutamate receptor.
Test [8] concerns the target Glutamate NMDA receptor. The test is described as §1. The source holds these as a separate data set.

Where only a bound is given, the exact number is not on record here.

Broadly, the Ki is the dissociation constant of the complex between target and ligand, obtained from inhibition or displacement. In turn, `C[C@@H]1CN[C@H](C(=O)O)C[C@@H]1CP(=O)(O)O` returned a Ki in test [1] of less than 1000 nM.
The same measure, in the same setting: then `NC(CCc1ccccc1CP(=O)(O)O)C(=O)O` (configuration not stated), with greater than 1000 nM.
In the case of `C/C(=C\C(N)C(=O)O)CP(=O)(O)O` (configuration not stated) [CGP-37849], the Ki in test [2] is less than 1000 nM; in test [3] it was 35 nM.
Consider `NC(CCCCP(=O)(O)O)C(=O)O` (configuration not stated), for which the Ki was greater than 1000 nM in test [4] and 42 nM in test [5].
As to `C[C@H]1C[C@@H](CP(=O)(O)O)C[C@@H](C(=O)O)N1`, the Ki in test [1] was greater than 1000 nM.
In the case of `NC(CCCCCP(=O)(O)O)C(=O)O` (configuration not stated) [AP-7], the Ki was 912 nM in test [6] and less than 1000 nM in test [1].
In the case of `CC([C@@H]1CCN[C@H](C(=O)O)C1)P(=O)(O)O` (some centres not stated), the Ki in test [1] was greater than 1000 nM.
Same read-out and setting: with `CC(C)([C@@H]1CCN[C@H](C(=O)O)C1)P(=O)(O)O` the figure was greater than 1000 nM.
On the same count and under the same terms, with `O=C(O)[C@@H]1C[C@H](CCCP(=O)(O)O)CCN1` the figure was less than 1000 nM.
Still for that read-out and setting: with `C[C@@H]1[C@H](CP(=O)(O)O)CCN[C@@H]1C(=O)O` the figure was greater than 1000 nM.
For `O=C(O)[C@H]1NCCC[C@H]1CCP(=O)(O)O`, in test [1], the Ki was greater than 1000 nM.
Consider `O=C(O)[C@@H]1C[C@H](C/C=C/P(=O)(O)O)CCN1`, for which the Ki in test [6] was 72 nM; in test [1], less than 1000 nM.
Consider `NC(CCCP(=O)(O)O)C(=O)O` (configuration not stated), for which the Ki was 260 nM in test [7] and less than 1000 nM in test [1].
Turning to `O=C(O)[C@@H]1C[C@H](CP(=O)(O)O)CCN1` [SELFOTEL], the Ki in test [2] was less than 1000 nM; in test [8], 130 nM.
Consider `O=C(O)[C@@H]1C[C@H](/C=C/CP(=O)(O)O)CCN1`, for which the Ki in test [6] was 14 nM; in test [1], less than 1000 nM.
